These are literature values, as cited in patent US10183097B2, “Engineered cardiac derived compositions and methods of use” (THE JOHNS HOPKINS UNIVERSITY, priority 2013, dated 2019).

For the data set, the system named is NRVM. To be noted: inventors' previous NRVM study with myofibroblasts; agent added separately.
Turning to `[Gd]` [gadolinium], the “electrophysiological suppression of conduction” value (“electrophysiological suppression” for short) is “relieved the electrophysiological suppression of conduction” and the severity of arrhythmia entry is listed as “reduced the severity of arrhythmia”.

As to `[H]/N=C(/N)N[C@H]1[C@H](O)[C@@H](O)[C@H](O[C@@H]2O[C@@H](C)[C@](O)(C=O)[C@H]2O[C@@H]2O[C@@H](CO)[C@H](O)[C@@H](O)[C@@H]2NC)[C@@H](N/C(N)=N\[H])[C@@H]1O` [streptomycin], the “electrophysiological suppression” value was “relieved the electrophysiological suppression of conduction” and the severity of arrhythmia entry was “reduced the severity of arrhythmia”.

As to `Cc1ccc2c(c1)C(=O)C1(O)CCN(c3ccccc3)C1=N2` (stereo not drawn) [blebbistatin], the “electrophysiological suppression” value is “relieved the electrophysiological suppression of conduction” and the severity of arrhythmia result was “reduced the severity of arrhythmia”.
